Test results published in patent US20110021556A1, “PYRROLIDINYL DERIVATIVES AND USES THEREOF” (Hoffman-La Roche, Inc., priority 2008, published 2011).
Structures can show the parent of a compound that is named as a salt.

SMILES | melting point [°C]
c1ccc(CC2(c3ccc4[nH]ccc4c3)CCNC2)nc1 (centres unmarked) | 169.9 to 171.1
c1ccc(CC2(c3ccc4sccc4c3)CCNC2)cc1 (centres unmarked) (as salt: hydrochloride) | 120.9 to 123
